Test results published in ChEMBL document CHEMBL1255229, “Novel antimicrobial peptides that exhibit activity against select agents and other drug resistant bacteria” (2010).
Values after ≈ are worked out from the molar mass of the structure shown. Starred links: 1 amine or outer side, 2 acyl side, 3 side chain; linkers in the order of their positions; H or OH if unused. Non-standard residues stand in square brackets, D forms with d. Residues, ends and D or L forms follow the SMILES beside them. ξ: configuration not given here. Pro(3ξ,4ξ-(CH2)4) = O=C(O)[C@H]1NCC2CCCCC21; Oic = O=C(O)[C@@H]1C[C@@H]2CCCC[C@@H]2N1; X1 = O=C([C@@H]1CN([*:1])C2CCCCC21)[*:2]; Phe(4-F) = N[C@@H](Cc1ccc(F)cc1)C(=O)O; Tic = O=C(O)[C@@H]1Cc2ccccc2CN1; Orn = NCCC[C@H](N)C(=O)O; Dap = NC[C@H](N)C(=O)O; βAla = NCCC(=O)O

Legend:
Assay type in all cases: functional
Acinetobacter baumannii [1] = experiment: Antimicrobial activity against Acinetobacter baumannii WRAIR after 24 hrs
Burkholderia mallei = experiment: Antimicrobial activity against Burkholderia mallei ATCC 23444 after 24 hrs; settings: ATCC 23444, 24 h
Yersinia pestis = experiment: Antimicrobial activity against Yersinia pestis CO92 after 24 hrs; settings: CO92, 24 h
Acinetobacter baumannii [2] = experiment: Antimicrobial activity against Acinetobacter baumannii ATCC 19606 after 24 hrs; settings: ATCC 19606 = CIP 70.34 = JCM 6841, 24 h
Francisella tularensis = experiment: Antimicrobial activity against Francisella tularensis SCHU-S4 after 24 hrs; settings: SCHU-S4, 24 h
[3] = tested on: Burkholderia pseudomallei; experiment: Antimicrobial activity against Burkholderia pseudomallei BURK003(1026b) after 24 hrs
Bacillus anthracis = experiment: Antimicrobial activity against Bacillus anthracis Ames after 24 hrs
Brucella suis = experiment: Antimicrobial activity against Brucella suis ATCC 23445 after 24 hrs; settings: ATCC 23445, 24 h
Brucella abortus = experiment: Antimicrobial activity against Brucella abortus 2308 after 24 hrs; settings: Brucella abortus, 2308, 24 h
Staphylococcus aureus = experiment: Antimicrobial activity against methicillin-resistant Staphylococcus aureus ATCC 33591 after 24 hrs; settings: ATCC 33591, 24 h
Brucella melitensis = experiment: Antimicrobial activity against Brucella melitensis 16 M after 24 hrs

Q: What does the source list for CC(=O)NCCC(=O)N[C@@H](Cc1ccc(F)cc1)C(=O)N1Cc2ccccc2C[C@H]1C(=O)N1CC2CCCCC2[C@H]1C(=O)NCCC(=O)N[C@@H](CN)C(=O)N1Cc2ccccc2C[C@H]1C(=O)N1CC2CCCCC2[C@H]1C(=O)NCCC(=O)N[C@@H](Cc1ccc(F)cc1)C(=O)N1Cc2ccccc2C[C@H]1C(=O)N1CC2CCCCC2[C@H]1C(=O)NCCC(=O)N[C@@H](CN)C(=O)N1Cc2ccccc2C[C@H]1C(=O)N[C@@H](CN)C(=O)N[C@@H](CN)C(=O)N[C@@H](CN)C(=O)N[C@@H](CN)C(N)=O (some centres undefined) (Ac-[βAla][Phe(4-F)][Tic][Pro(3ξ,4ξ-(CH2)4)][βAla][Dap][Tic][Pro(3ξ,4ξ-(CH2)4)][βAla][Phe(4-F)][Tic][Pro(3ξ,4ξ-(CH2)4)][βAla][Dap][Tic][Dap][Dap][Dap][Dap]-NH2)?
A: MIC (Acinetobacter baumannii [1]): 3.4 µM (≈ 7.75 µg/mL); MIC (Burkholderia mallei): 219 µM (≈ 499 µg/mL); MIC (Yersinia pestis): 219 µM (≈ 499 µg/mL); MIC (Acinetobacter baumannii [2]): 3.4 µM (≈ 7.75 µg/mL); MIC (Francisella tularensis): 219 µM (≈ 499 µg/mL); MIC [3]: 219 µM (≈ 499 µg/mL); MIC (Bacillus anthracis): 6.8 µM (≈ 15.5 µg/mL); MIC (Brucella suis): 219 µM (≈ 499 µg/mL); MIC (Brucella abortus): 219 µM (≈ 499 µg/mL); MIC (Staphylococcus aureus): 109 µM (≈ 249 µg/mL); MIC (Brucella melitensis): 219 µM (≈ 499 µg/mL)

Q: With CC(=O)NCC(=O)N[C@@H](Cc1ccccc1)C(=O)N1Cc2ccccc2C[C@H]1C(=O)N1[C@H](C(=O)NCC(=O)N[C@@H](CCCCN)C(=O)N2Cc3ccccc3C[C@H]2C(=O)N2[C@H](C(=O)NCC(=O)N[C@@H](Cc3ccccc3)C(=O)N3Cc4ccccc4C[C@H]3C(=O)N3[C@H](C(=O)NCC(=O)N[C@@H](CCCCN)C(=O)N4Cc5ccccc5C[C@H]4C(=O)N[C@@H](CCCCN)C(=O)N[C@@H](CCCCN)C(=O)N[C@@H](CCCCN)C(=O)N[C@@H](CCCCN)C(N)=O)C[C@@H]4CCCC[C@@H]43)C[C@@H]3CCCC[C@@H]32)C[C@@H]2CCCC[C@@H]21 (Ac-GF[Tic][Oic]GK[Tic][Oic]GF[Tic][Oic]GK[Tic]KKKK-NH2) as the compound, how does the MIC (Acinetobacter baumannii [1]) read?
A: Its MIC is 3.2 µM (≈ 7.81 µg/mL).

Q: What about the MIC (Burkholderia mallei) of the same compound?
A: Its MIC is 205 µM (≈ 500 µg/mL).

Q: And the MIC (Yersinia pestis)?
A: Its MIC is 205 µM (≈ 500 µg/mL).

Q: What about the MIC (Acinetobacter baumannii [2]) of the same compound?
A: The MIC was 3.2 µM (≈ 7.81 µg/mL).

Q: What about the MIC (Francisella tularensis) of the same compound?
A: The MIC was 100 µM (≈ 244 µg/mL).

Q: And the MIC [3]?
A: Its MIC is 205 µM (≈ 500 µg/mL).

Q: And the MIC (Bacillus anthracis)?
A: The MIC was 12.8 µM (≈ 31.2 µg/mL).

Q: What about the MIC (Brucella suis) of the same compound?
A: Its MIC is 205 µM (≈ 500 µg/mL).

Q: And the MIC (Brucella abortus)?
A: Its MIC is 205 µM (≈ 500 µg/mL).

Q: What about the MIC (Staphylococcus aureus) of the same compound?
A: The MIC was 205 µM (≈ 500 µg/mL).

Q: What about the MIC (Brucella melitensis) of the same compound?
A: The MIC was 205 µM (≈ 500 µg/mL).

Q: CC(=O)NCC(=O)N[C@@H](Cc1ccccc1)C(=O)N1Cc2ccccc2C[C@H]1C(=O)N1C[C@@H](C(=O)NCC(=O)N[C@@H](CCCN)C(=O)N2Cc3ccccc3C[C@H]2C(=O)N2C[C@@H](C(=O)NCC(=O)N[C@@H](Cc3ccccc3)C(=O)N3Cc4ccccc4C[C@H]3C(=O)N3C[C@@H](C(=O)NCC(=O)N[C@@H](CCCN)C(=O)N4Cc5ccccc5C[C@H]4C(=O)N[C@@H](CCCN)C(=O)N[C@@H](CCCN)C(=O)N[C@@H](CCCN)C(=O)N[C@@H](CCCN)C(N)=O)C4CCCCC43)C3CCCCC32)C2CCCCC21 (some centres undefined) (Ac-GF[Tic][X1]G[Orn][Tic][X1]GF[Tic][X1]G[Orn][Tic][Orn][Orn][Orn][Orn]-NH2) was tested. Which MIC (Acinetobacter baumannii [1]) did it give?
A: Its MIC is 6.6 µM (≈ 15.6 µg/mL).

Q: And the MIC (Burkholderia mallei)?
A: The MIC was 212 µM (≈ 500 µg/mL).

Q: What about the MIC (Yersinia pestis) of the same compound?
A: Its MIC is 26.5 µM (≈ 62.5 µg/mL).

Q: And the MIC (Acinetobacter baumannii [2])?
A: The MIC was 6.6 µM (≈ 15.6 µg/mL).

Q: And the MIC (Francisella tularensis)?
A: The MIC was 106 µM (≈ 250 µg/mL).

Q: What about the MIC [3] of the same compound?
A: The MIC was 212 µM (≈ 500 µg/mL).

Q: And the MIC (Bacillus anthracis)?
A: Its MIC is 0.82 µM (≈ 1.93 µg/mL).

Q: And the MIC (Brucella suis)?
A: The MIC was 106 µM (≈ 250 µg/mL).

Q: And the MIC (Brucella abortus)?
A: Its MIC is 106 µM (≈ 250 µg/mL).

Q: And the MIC (Staphylococcus aureus)?
A: Its MIC is 53 µM (≈ 125 µg/mL).

Q: What about the MIC (Brucella melitensis) of the same compound?
A: The MIC was 106 µM (≈ 250 µg/mL).

Q: For CC(=O)NCCC(=O)N[C@@H](Cc1ccccc1)C(=O)N1Cc2ccccc2C[C@H]1C(=O)N1C[C@@H](C(=O)NCCC(=O)N[C@@H](CCCCN)C(=O)N2Cc3ccccc3C[C@H]2C(=O)N2C[C@@H](C(=O)NCCC(=O)N[C@@H](Cc3ccccc3)C(=O)N3Cc4ccccc4C[C@H]3C(=O)N3C[C@@H](C(=O)NCCC(=O)N[C@@H](CCCCN)C(=O)N[C@@H](CCCCN)C(=O)N[C@@H](CCCCN)C(=O)N[C@@H](CCCCN)C(=O)N[C@@H](CCCCN)C(N)=O)C4CCCCC43)C3CCCCC32)C2CCCCC21 (some centres undefined) (Ac-[βAla]F[Tic][X1][βAla]K[Tic][X1][βAla]F[Tic][X1][βAla]KKKKK-NH2), which MIC (Acinetobacter baumannii [1]) is on record?
A: Its MIC is 6.2 µM (≈ 14.5 µg/mL).

Q: And the MIC (Burkholderia mallei)?
A: The MIC was 200 µM (≈ 468 µg/mL).

Q: And the MIC (Yersinia pestis)?
A: Its MIC is 200 µM (≈ 468 µg/mL).

Q: And the MIC (Acinetobacter baumannii [2])?
A: The MIC was 1.5 µM (≈ 3.51 µg/mL).

Q: What about the MIC (Francisella tularensis) of the same compound?
A: The MIC was 100 µM (≈ 234 µg/mL).

Q: What about the MIC [3] of the same compound?
A: Its MIC is 200 µM (≈ 468 µg/mL).

Q: And the MIC (Bacillus anthracis)?
A: The MIC was 25 µM (≈ 58.4 µg/mL).

Q: What about the MIC (Brucella suis) of the same compound?
A: Its MIC is 200 µM (≈ 468 µg/mL).

Q: What about the MIC (Brucella abortus) of the same compound?
A: Its MIC is 200 µM (≈ 468 µg/mL).

Q: And the MIC (Staphylococcus aureus)?
A: Its MIC is 200 µM (≈ 468 µg/mL).

Q: What about the MIC (Brucella melitensis) of the same compound?
A: The MIC was 200 µM (≈ 468 µg/mL).
